Results reported in US11400076B2, “Cancer stem cell inhibitor” (KEIO UNIVERSITY, priority 2017, dated 2022).

Experiments:
mitochondrial complex II = test: Expression levels of mitochondrial complex I to V by electrophoresis and Western Blot; type: cell-based, mice; details: protein extracted from cells of Example 1, FIG. 7
Experimental: Furthermore, protein was extracted from cells of Example 1, and the expression levels of mitochondrial complex I to V were measured by electrophoresis and Western Blot.

[1] = tested on: mitochondria in cancer stem cells; test: Mitochondrial function by extracellular flux analysis; type: cell-based, mice; details: 21% oxygen (normoxic) and 1% oxygen (hypoxic), FIG. 6
Experimental: (§1) Since the cell cycle was arrested in the G1 phase, a decrease in energy metabolism was suspected. ATP levels under 21% oxygen (normoxic condition) and 1% oxygen (hypoxic condition) were measured using the same cells as in Example 1. […] From this, suppression of mitochondrial function was suspected, and so, mitochondrial function was evaluated by extracellular flux analysis.

[2] = tested on: undifferentiated cancer stem cells; test: Effect with altered degree of induction of differentiation by serum; type: cell-based, mice; details: serum-free vs serum-containing medium, 4 days, FIG. 9
Text: Using the method similar to Example 1, the degree of induction of differentiation was altered by changing the culture mediums, to observe the effect thereby. Specifically, a group cultured in a serum-free culture medium of Example 1 for consecutive 4 days; a group cultured in a serum-free culture medium for 3 days, and then cultured in a serum-containing culture medium for 1 day; a group cultured in a serum-containing culture medium for 3 days, and then cultured in a serum-free culture medium for 1 day; and the remaining one group cultured in a serum-containing culture medium for 4 days; were prepared. According to such culturing, the degree of induction of differentiation by serum was altered and the effect of doranidazole was confirmed.

[3] = in vivo; cited from earlier work
[4] = tested on: cancer stem cells (spheroid); test: Spheroid cell death monitored with propidium iodide (PI); type: cell-based, mice; details: for cell death (PI positive area): spheroid, PI added, monitored over time, FIG. 4
Experimental: In accordance with the literature (Sampetrean O. et. al., Neoplasia, 13(9) 2011, 784 to 791), the subventricular zone was resected from Ink4a/Arf deficient mice and subjected to trypsin treatment to obtain spheroid-forming cells. The resulting spheroids were cultured in a culture medium containing no differentiation-inducing component (DMEM/F12 in which 20 ng/mL of EGF, 20 ng/mL of FGF, B27 supplement in which vitamin A was removed, 200 ng/mL of heparan sulfate, 100 U/mL of penicillin, and 100 U/mL of streptomycin were added) in a flow of 5% carbon dioxide at 37° C. […] These cells were transplanted to the brains of C57BL/6 mice, then the formed brain tumors were resected and subjected to trypsin treatment to obtain cells. Drug-resistant or fluorescent reporter-positive cells were sorted, and then cell cycle markers were introduced into part of the cells. Thus-obtained spheroid-forming cells were cultured under the above-described culturing condition, and used as a sample.

[5] = tested on: reactive oxygen species (ROS) in mitochondria; test: Mito Sox staining, mitochondrial ROS by flow cytometry; type: cell-based, mice; details: FIG. 8
Text: Using Mito Sox staining, reactive oxygen species (ROS) in mitochondria was quantified by flow cytometry for the cells cultured according to Example 1, with or without doranidazole, misonidazole, or metronidazole.

cancer stem cells [6] = test: ATP levels in cancer stem cells; type: cell-based, mice; details: 21% oxygen (normoxic) and 1% oxygen (hypoxic), FIG. 6
Experimental: as §1

cancer stem cells [7] = test: Radiation-induced double-strand break, Hoechst 33324 and γH2AX double staining; type: cell-based, mice; details: irradiated, hypoxic condition, FIG. 10
Text: Cells cultured according to the method of Example 1, with or without doranidazole, were irradiated, followed by double staining with Hoechst 33324 and γH2AX, and then double-strand break was quantified.

[8] = tested on: cancer stem cells (spheroid-forming cells); test: Spheroid culture of cancer stem cells in 96-well plate with analyte; type: cell-based, mice; details: various concentration of analytes, medium without differentiation-inducing component, FIG. 2
Experimental: (§2) In accordance with the literature ([…]. et. al., Neoplasia, 13(9) 2011, 784 to 791), the subventricular zone was resected from Ink4a/Arf deficient mice and subjected to trypsin treatment to obtain spheroid-forming cells. The resulting spheroids were cultured in a culture medium containing no differentiation-inducing component (DMEM/F12 in which 20 ng/mL of EGF, 20 ng/mL of FGF, B27 supplement in which vitamin A was removed, 200 ng/mL of heparan sulfate, 100 U/mL of penicillin, and 100 U/mL of streptomycin were added) in a flow of 5% carbon dioxide at 37° C. Then, a constitutively active, mutated form of H-Ras and, as necessary, reporter cassettes for detecting, for example, fluorescent signals or selection marker for cell selection, for example, drug-resistant cassettes, were incorporated into cancer stem cells for transformation, and cultured to obtain spheroid-forming cells. These cells were transplanted to the brains of C57BL/6 mice, then the formed brain tumors were resected and subjected to trypsin treatment to obtain cells. Drug-resistant or fluorescent reporter-positive cells were sorted, and then cell cycle markers were introduced into part of the cells. Thus-obtained spheroid-forming cells were cultured under the above-described culturing condition, and used as a sample. […]

[9] = tested on: cancer stem cells (spheroid-forming cells); test: Monolayer culture of cancer stem cells, cell cycle and growth; type: cell-based, mice; details: various concentrations, FIG. 3
Experimental: as §2, with “sample. The above cells were subjected to monolayer culture.” for “sample.”

Row | Compound | expression of complex II (mitochondrial complex II) | oxygen consumption of mitochondria [1] | reserve capacity of mitochondria [1] | effect depending on degree of induction of differentiation by serum [2] | LD50 [3] | type of cell death ([4]; inhibitor comparison, FIG. 5) | cell death (PI positive area) [4] | ROS in mitochondria [5] | ATP content of cancer stem cells (cancer stem cells [6]) | radiation-induced double-strand break (cancer stem cells [7]) | growth of spheroids [8] | cell cycle [9] | growth [9] | suppression of doranidazole-induced cell death ([4]; compared to DMSO, necrostatin 1 and Z-VAD-FMK, FIG. 5)
1 | O=[N+]([O-])c1nccn1COC(CO)C(O)CO (centres unmarked) [doranidazole] | remarkably decreased | decreased depending on the concentration | decreased depending on the concentration | when the degree of induction of differentiation by serum is low, the effect of doranidazole is remarkable | ≥ 5000 mg/kg | ferroptosis | cell death is induced by doranidazole in dose dependent manner | significantly increases | decreased | significantly enhances | suppresses the growth of spheroids | arrests the cell cycle in the G1 phase | suppresses growth | 
2 | COCC(O)Cn1ccnc1[N+](=O)[O-] (centres unmarked) [misonidazole] | remarkably decreased |  |  |  | about 1 g/kg |  | the cell death was similarly confirmed | significantly increases |  |  |  |  |  | 
3 | CCOC(=O)c1ccc(NC2CCCCC2)c(N)c1 [ferrostatin 1] |  |  |  |  |  |  |  |  |  |  |  |  |  | significantly suppressed
4 | Cc1ncc([N+](=O)[O-])n1CCO [metronidazole] |  |  |  |  |  |  | no cell death was observed | not observed |  |  |  |  |  | 
